# Measured values from the NIST ThermoML archive (doi:10.1016/j.jct.2006.05.008).
# Numbers after ± are expanded uncertainties.
# What was measured:
# [1] = Molar enthalpy of transition or fusion; details: Adiabatic calorimetry
# [2] = Adiabatic calorimetry
SMILES,Molar enthalpy of transition or fusion ([1]; Crystal),Triple point temperature ([2]; Crystal),Molar enthalpy of transition or fusion ([1]; Metastable crystal),Glass transition temperature ([2]; Glass),Triple point temperature ([2]; Metastable crystal)
CCn1cc[n+](C)c1.[Br-] [1-ethyl-3-methylimidazolium bromide],4.36 ± 0.0574 kcal/mol,349.91 ± 0.2 K,,,
CCC[n+]1ccn(C)c1.[Br-] [1-methyl-3-propylimidazolium bromide],3.23 ± 0.0478 kcal/mol,314.7 ± 0.5 K,5.11 ± 0.0717 kcal/mol,-64 ± 3 °C,310.4 ± 0.5 K
CCCCn1cc[n+](C)c1.[Br-] [1-butyl-3-methylimidazolium bromide],5.468 ± 0.0239 kcal/mol,351.35 ± 0.2 K,,,
